# Legend:
# Assay in all cases: microbe, parasite or virus in culture
# [1] = tested on: Xanthomonas citri; format: cell-based, Xanthomonas citri subsp. citri
# [2] = tested on: Agrobacterium tumefaciens; format: cell-based
# [3] = tested on: Mesorhizobium loti; format: cell-based
# [4] = tested on: Sinorhizobium meliloti; format: cell-based
# [5] = tested on: Bradyrhizobium japonicum; format: cell-based
# [6] = tested on: Rhizobium etli; format: cell-based
# [7] = tested on: Liberibacter crescens; format: cell-based
SMILES,MBC [1] [µg/mL],MIC [1] [µg/mL],MBC [2] [µg/mL],MIC [2] [µg/mL],MBC [3] [µg/mL],MIC [3] [µg/mL],MBC [4] [µg/mL],MIC [4] [µg/mL],MBC ([5]; 24 hrs) [µg/mL],MIC ([5]; 24 hrs) [µg/mL],MBC ([5]; 120 hrs) [µg/mL],MIC ([5]; 120 hrs) [µg/mL],MBC ([6]; 24 hrs) [µg/mL],MIC ([6]; 24 hrs) [µg/mL],MBC ([6]; 120 hrs) [µg/mL],MIC ([6]; 120 hrs) [µg/mL],MBC ([7]; 24 h) [µg/mL],MIC ([7]; 24 h) [µg/mL],MBC ([7]; 120 h) [µg/mL],MIC ([7]; 120 h) [µg/mL]
"CC(C)[C@H](NC(=O)c1c(F)cccc1F)C(=O)Nc1ccc(-n2cnnn2)cc1 [SA1, 2,6-Difluoro-N-[(2S)-3-methyl-1-oxo-1-{[4-(1H-tetrazol-1-yl)phenyl]amino}-2-butanyl] benzamide]",128,64,64,32,32,16,32,16,16,16,32,32,32,16,64,32,16,16,32,32
"Nc1c(C(=O)O)sc2nc(-c3ccccc3)cc(-c3ccc(F)cc3)c12 [SA2, 3-Amino-4-(4-fluorophenyl)-6-phenyl-thieno[2,3-b]pyridine-2-carboxylic acid]",64,32,64,32,32,16,32,16,64,32,128,64,32,16,64,32,16,16,32,32
"CC(C)[C@H](NC(=O)c1ccccc1)C(=O)Nc1cccc(-n2cnnn2)c1 [SA3, N-[(2S)-3-Methyl-1-oxo-1-{[3-(1H-tetrazol-1-yl)phenyl]amino}-2-butanyl] benzamide]",128,64,64,32,32,16,64,32,32,16,64,32,32,32,64,64,16,8,32,16
"O=C1CCCC2=C1[C@H](c1ccccc1)Nc1ccc(C(=O)c3ccccc3)cc1N2 [SA4, (11S)-7-Benzoyl-11-phenyl-2,3,4,5,10,11-hexahydro-1H-dibenzo[b,e] [1,4]diazepin-1-one]",64,32,64,16,32,16,64,32,16,8,16,16,16,8,32,16,32,16,64,32
"COc1ccc(C2Nc3ccc(C(=O)c4ccccc4)cc3NC3=C2C(=O)CC(c2ccccc2)C3)cc1 (centres unmarked) [SA5, 7-Benzoyl-11-(4-methoxy-phenyl)-3-phenyl-2,3,4,5,10,11-hexahydro-1H-dibenzo[b,e] [1,4]diazepin-1-one]",128,64,64,32,32,16,64,32,16,16,32,32,16,16,32,32,16,8,32,16
"O=C1CC(c2ccccc2)CC2=C1C(c1ccc(O)cc1)Nc1ccc(C(=O)c3ccccc3)cc1N2 (centres unmarked) [SA6, 7-Benzoyl-11-(4-hydroxy-phenyl)-3-phenyl-2,3,4,5,10,11-hexahydro-1H-dibenzo[b,e] [1,4]diazepin-1-one]",128,64,64,16,32,16,32,32,32,16,32,32,32,32,64,64,16,16,64,32
"CCOc1ccc(C2Nc3ccc(C(=O)c4ccccc4)cc3NC3=C2C(=O)CCC3)cc1 (centres unmarked) [SA7, 7-Benzoyl-11-(4-ethoxy-phenyl)-2,3,4,5,10,11-hexahydro-1H-dibenzo[b,e] [1,4]diazepin-1-one]",64,32,64,16,32,16,32,16,32,32,32,32,16,16,32,32,16,16,32,32
"O=C1CC(c2ccccc2)CC2=C1C(c1cccs1)Nc1ccc(C(=O)c3ccccc3)cc1N2 (centres unmarked) [SA8, 7-Benzoyl-3-phenyl-11-(2-thienyl)-2,3,4,5,10,11-hexahydro-1H-dibenzo[b,e] [1,4]diazepin-1-one]",64,32,128,32,32,16,32,16,16,8,32,32,16,8,32,16,16,16,32,32
"Cc1cc([C@H]2Nc3ccc(C(=O)c4ccccc4)cc3NC3=C2C(=O)CC(C)(C)C3)cc(C)c1O [SA9, 11-(4-hydroxy-3,5-dimethyl-phenyl)-3,3-dimethyl-7-(phenyl-carbonyl)-2,3,4,5,10,11-hexahydro-1H-dibenzo[b,e] [1,4]diazepin-1-one]",64,32,64,32,32,16,32,16,32,16,64,32,16,8,32,16,16,16,64,32
"COc1ccc(NC(=O)C2(N(C(=O)c3ccc(-n4cnnn4)cc3)c3ccc(OC)cc3)CCCCC2)cc1 [SSC8, N-(4-methoxy-phenyl)-N-{1-[(4-methoxy-phenyl)carbamoyl]cyclohexyl}-4-(1H-tetrazol-1-yl)benzamide]",64,32,64,32,32,16,32,16,16,8,32,16,32,16,64,32,16,16,32,32
